Source: ChEMBL document CHEMBL4152189, “Incorporation of nitric oxide donor into 1,3-dioxyxanthones leads to synergistic anticancer activity” (Eur J Med Chem, 2018)
Calls of active or inactive are those of the source. The rule behind the calls is not given here.

Tests used:
[1] = tested on: HepG2; assay: Cell cycle arrest in human HepG2 cells assessed as accumulation at S phase at 0.66 uM after 24 hrs by propidium iodide/RNAse staining-based flow cytometric analysis; format: functional
[2] = tested on: HepG2; assay: Induction of apoptosis in human HepG2 cells assessed as inhibition of p53-MDM2 interaction by measuring downregulation of MDM2 expression at 1 uM after 24 hrs by Western blot analysis; format: functional, cell-based
[3] = tested on: HepG2; assay: Induction of NO generation in human HepG2 cells assessed as nitrite levels at 0.66 uM after 48 hrs by Griess assay (reference value: 12.8 +/- 1.7 uM); format: functional
[4] = tested on: HepG2; assay: Induction of apoptosis in human HepG2 cells assessed as early apoptotic cells at 0.33 uM after 24 hrs by Annexin-V/propidium iodide staining-based flow cytometric analysis; format: functional
[5] = tested on: HepG2; assay: Induction of apoptosis in human HepG2 cells at 0.66 uM after 24 hrs by Annexin-V/propidium iodide staining-based flow cytometric analysis; format: functional
[6] = tested on: HepG2; assay: Induction of NO generation in human HepG2 cells assessed as nitrite levels at 0.66 uM after 6 hrs by Griess assay (reference value: 12.6 +/- 1.1 uM); format: functional
[7] = tested on: HepG2; assay: Induction of NO generation in human HepG2 cells assessed as nitrite levels at 0.16 uM after 60 hrs by Griess assay (reference value: 12.8 +/- 1.5 uM); format: functional
[8] = tested on: HepG2; assay: Induction of NO generation in human HepG2 cells assessed as nitrite levels at 0.33 uM after 48 hrs by Griess assay (reference value: 12.8 +/- 1.7 uM); format: functional
[9] = tested on: L02; assay: Induction of NO generation in human HL-7702 cells assessed as nitrite levels at 0.66 uM after 12 hrs by Griess assay (reference value: 11.8 +/- 1.2 uM); format: functional
[10] = tested on: HepG2; assay: Induction of apoptosis in human HepG2 cells assessed as late apoptotic/necrotic cells at 0.66 uM after 24 hrs by Annexin-V/propidium iodide staining-based flow cytometric analysis; format: functional
[11] = tested on: HepG2; assay: Growth inhibition of human HepG2 cells pre-incubated with mtADH inhibitor PCDA for 2.5 hrs followed by 0.66 uM compound treatment for 24 hrs by MTT assay; format: functional, cell-based
[12] = tested on: HepG2; assay: Induction of apoptosis in human HepG2 cells at 0.33 uM after 24 hrs by Annexin-V/propidium iodide staining-based flow cytometric analysis; format: functional
[13] = tested on: HepG2; assay: Induction of apoptosis in human HepG2 cells assessed as late apoptotic/necrotic cells at 0.33 uM after 24 hrs by Annexin-V/propidium iodide staining-based flow cytometric analysis; format: functional
[14] = tested on: HepG2; assay: Induction of NO generation in human HepG2 cells assessed as nitrite levels at 0.16 uM after 6 hrs by Griess assay (reference value: 12.6 +/- 1.1 uM); format: functional
[15] = tested on: HepG2; assay: Induction of NO generation in human HepG2 cells assessed as nitrite levels at 0.33 uM after 1 hr by Griess assay (reference value: 12.9 +/- 1.5 uM); format: functional
[16] = tested on: HepG2; assay: Induction of NO generation in human HepG2 cells assessed as nitrite levels at 0.66 uM after 1 hr by Griess assay (reference value: 12.9 +/- 1.5 uM); format: functional
[17] = tested on: NIH3T3; assay: Growth inhibition of mouse NIH/3T3 cells after 24 hrs by MTT assay; format: cell-based; conditions: NIH3T3, 24 h
[18] = tested on: L02; assay: Induction of NO generation in human HL-7702 cells assessed as nitrite levels at 0.66 uM after 60 hrs by Griess assay (reference value: 11.8 +/- 1.3 uM); format: functional
[19] = tested on: L02; assay: Induction of NO generation in human HL-7702 cells assessed as nitrite levels at 0.66 uM after 24 hrs by Griess assay (reference value: 11.6 +/- 1.1 uM); format: functional
[20] = tested on: HepG2; assay: Induction of apoptosis in human HepG2 cells assessed as inhibition of p53-MDM2 interaction by measuring upregulation of p53 expression after 24 hrs by Western blot analysis; format: functional, cell-based
[21] = tested on: HepG2; assay: Induction of apoptosis in human HepG2 cells assessed as early apoptotic cells at 0.66 uM after 24 hrs by Annexin-V/propidium iodide staining-based flow cytometric analysis; format: functional
[22] = tested on: HepG2; assay: Induction of apoptosis in human HepG2 cells assessed as increase in cleaved caspase9 level up to 0.66 uM after 24 hrs by Western blot analysis; format: functional, cell-based
[23] = tested on: HepG2; assay: Induction of NO generation in human HepG2 cells assessed as nitrite levels at 0.66 uM after 60 hrs by Griess assay (reference value: 12.8 +/- 1.5 uM); format: functional
[24] = tested on: HepG2; assay: Growth inhibition of human HepG2 cells pre-incubated with NO scavenger carboxy-PTIO for 1 hr followed by 0.66 uM compound treatment for 24 hrs by MTT assay; format: functional, cell-based
[25] = tested on: HepG2; assay: Induction of apoptosis in human HepG2 cells assessed as inhibition of p53-MDM2 interaction by measuring p53/MDM2 ratio at 1 uM after 24 hrs by Western blot analysis (reference value: 0.48); format: functional
[26] = tested on: MCF7; assay: Growth inhibition of human MCF7 cells after 24 hrs by MTT assay; format: functional, cell-based; conditions: MCF7, 24 h
[27] = tested on: HepG2; assay: Induction of NO generation in human HepG2 cells assessed as nitrite levels at 0.33 uM after 24 hrs by Griess assay (reference value: 12.8 +/- 1.7 uM); format: functional
[28] = tested on: HepG2; assay: Induction of NO generation in human HepG2 cells assessed as nitrite levels at 0.33 uM after 6 hrs by Griess assay (reference value: 12.6 +/- 1.1 uM); format: functional
[29] = tested on: HepG2; assay: Induction of NO generation in human HepG2 cells assessed as nitrite levels at 0.66 uM after 12 hrs by Griess assay (reference value: 12.7 +/- 1.8 uM); format: functional
[30] = tested on: HepG2; assay: Induction of apoptosis in human HepG2 cells assessed as increase in cleaved caspase3 level up to 0.66 uM after 24 hrs by Western blot analysis; format: functional, cell-based
[31] = tested on: HepG2; assay: Induction of NO generation in human HepG2 cells assessed as nitrite levels at 0.66 uM after 24 hrs by Griess assay (reference value: 12.8 +/- 1.7 uM); format: functional
[32] = tested on: HepG2; assay: Cell cycle arrest in human HepG2 cells assessed as accumulation at S phase at 0.16 to 0.66 uM after 24 hrs by propidium iodide/RNAse staining-based flow cytometric analysis; format: functional
[33] = tested on: L02; assay: Induction of NO generation in human HL-7702 cells assessed as nitrite levels at 0.66 uM after 6 hrs by Griess assay (reference value: 11.8 +/- 1.1 uM); format: functional
[34] = tested on: HepG2; assay: Induction of NO generation in human HepG2 cells assessed as nitrite levels at 0.16 uM after 3 hrs by Griess assay (reference value: 12.8 +/- 1.5 uM); format: functional
[35] = tested on: L02; assay: Growth inhibition of human HL-7702 cells after 24 hrs by MTT assay; format: cell-based; conditions: L02, 24 h
[36] = tested on: HepG2; assay: Induction of NO generation in human HepG2 cells assessed as nitrite levels at 0.16 uM after 48 hrs by Griess assay (reference value: 12.8 +/- 1.7 uM); format: functional
[37] = tested on: HepG2; assay: Cell cycle arrest in human HepG2 cells assessed as accumulation at S phase after 24 hrs by propidium iodide/RNAse staining-based flow cytometric analysis; format: functional

`COc1cccc2oc3cc(OCCCCCO[N+](=O)[O-])cc(O)c3c(=O)c12` was tested, and the Activity [1] was 56.2%, the Activity [2] was “Active” and the Activity [3] was 28.1 µM. It also gave an Activity [4] of 64.8%, an Activity [5] of 86.8% and an Activity [6] of 31.4 µM. It also gave an Activity [7] of 15.7 µM, an Activity [8] of 26.6 µM and an Activity [9] of 19.3 µM. The Activity [10] was 41.7%, the “growth inhibition (GI)” value [11] was “inactive” and the Activity [12] was 76.6%. It also gave an Activity [13] of 11.8%, an Activity [14] of 22.9 µM and an Activity [15] of 19.3 µM. It also gave an Activity [16] of 21.6 µM, an IC50 [17] of 378 µM and an Activity [18] of 14.5 µM. For the same compound, the Activity [19] was 19.4 µM, the Activity [20] was “Dose-dependent effect” and the Activity [21] was 45.1%. The Activity [22] was “Dose-dependent effect”, the Activity [23] was 20.2 µM and the “growth inhibition (GI)” value [24] was “inactive”. It also gave a Ratio [25] of 6.46, an IC50 [26] of 33.1 µM and an Activity [27] of 35.1 µM. For the same compound, the Activity [28] was 29.6 µM, the Activity [29] was 36 µM and the Activity [30] was “Dose-dependent effect”. The Activity [31] was 39.1 µM, the Activity [32] was “Active” and the Activity [33] was 17.1 µM. For the same compound, the Activity [34] was 18.8 µM, the IC50 [35] was 377 µM and the Activity [36] was 21.3 µM. The Activity [37] was “Dose-dependent effect”.
